Measurements as given in PubChem BioAssay (NCI).
“And” between values parts separate entries of the source, which are not always exact repeats. Equal entries are not always repeated.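 Test compounds were applied to cells in 96-well plates for 48 hours at 5 doses. GI50 is the concentration that inhibits growth by half. TGI: concentration producing complete growth inhibition.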

How the values were obtained:
Test in all cases: NCI-60 cell line screen, 48 h
CAKI-1 renal = tested on: CAKI-1 renal
COLO 205 colon = tested on: COLO 205 colon
DU-145 prostate = tested on: DU-145 prostate
HL-60(TB) leukemia = tested on: HL-60(TB) leukemia
HOP-92 NSCLC = tested on: HOP-92 NSCLC
KM12 colon = tested on: KM12 colon
LOX IMVI melanoma = tested on: LOX IMVI melanoma
NCI-H460 lung = tested on: NCI-H460 lung
SF-539 CNS = tested on: SF-539 CNS
TK-10 renal = tested on: TK-10 renal

Structure (SMILES) | GI50 (CAKI-1 renal) | TGI (CAKI-1 renal) [µM] | GI50 (COLO 205 colon) | TGI (COLO 205 colon) [µM] | GI50 (DU-145 prostate) | TGI (DU-145 prostate) | GI50 (HL-60(TB) leukemia) | TGI (HL-60(TB) leukemia) | GI50 (HOP-92 NSCLC) [µM] | TGI (HOP-92 NSCLC) [µM] | GI50 (KM12 colon) | TGI (KM12 colon) | GI50 (LOX IMVI melanoma) | TGI (LOX IMVI melanoma) | GI50 (NCI-H460 lung) | TGI (NCI-H460 lung) [µM] | GI50 (SF-539 CNS) | TGI (SF-539 CNS) | GI50 (TK-10 renal) | TGI (TK-10 renal)
O=C1C(=O)c2ccccc2C(O)=C1CCCc1ccc(C2CCCCC2)cc1 | 2.02 µM | 6.51 | 7.02 µM | 34.8 | 5.17 µM | 36.5 µM | 2.94 µM | 28.5 µM | 1.71 | 24 | 4.16 µM | 17.9 µM | 1.15 µM | 12 µM | 2.78 µM | 10.3 | 5.78 µM | 28.7 µM | 23.4 µM | > 100 µM
COC(=O)c1c2c(c(C)[n+]([O-])c1C)C(=O)C=C(NCc1cccc(Cl)c1)C2=O | 0.204 µM | 1.95 | 0.292 µM | 0.961 | 0.821 µM | 2.18 µM | 0.287 µM | 0.935 µM | 1.81 | 4.1 | 0.2 µM | 1.69 µM | 0.0687 µM | 1.35 µM | 0.381 µM | 1.6 | 0.525 µM | 1.49 µM | 2.43 µM | 6.52 µM
CC(C)c1cccc(O)c(=O)c1 | 2.97 µg/mL |  | 1.21 µg/mL |  | 2.1 µg/mL | 24.7 µg/mL | 1.25 µg/mL |  |  | > 100 | 2.41 µg/mL | > 75 µg/mL and > 100 µM | 1.94 µg/mL | > 75 µg/mL and > 100 µM | 0.31 µg/mL |  | 4.51 µg/mL |  | 17.3 µg/mL | > 75 µg/mL and > 100 µM
CCC1(OC(=O)CN)C(=O)OCc2c1cc1n(c2=O)Cc2cc3ccccc3nc2-1 (centres undefined) | 0.00739 µM |  | 0.276 µM | 0.667 | 0.00536 µM | 0.551 µM |  | 0.084 µM and < 0.0132 µM | 0.0971 |  | 0.022 µM | 0.754 µM and 4.01 µM | 0.0089 µM |  | 0.00329 µM |  | 0.0378 µM | 0.191 µM and 0.0253 µM | 0.721 µM | 15.1 µM
C=C1SC(=Nc2ccccc2Cl)N(C(=O)c2sc3ccccc3c2Cl)C12CCCCC2 | 3.05 µM | > 100 | 8.5 µM | 22.4 | 6.2 µM | > 100 µM | 6.63 µM | 89.3 µM | 2.01 | 9.31 | 4.73 µM | > 100 µM | 21.8 µM | > 100 µM | 4.71 µM | > 100 | 34.9 µM | > 100 µM | 15.2 µM | > 100 µM
